Entries after “also recorded” stand apart in the source; their conditions may differ.
Experiments:
Assay type in all cases: cell-based, human
[1] = test system: M327I- and T349M-mutant MV4;11 cells; assay: dose-response assay, viable cell counts by flow cytometry
Description: (§1) MV4;11 and OCI-AML3 cell lines were passaged 24 h prior to nucleofection. The guide RNA (150 μmol) (sequence: 5′-[…]-3′) was added to Alt-R S.p. HiFi Cas9 nuclease (Integrated DNA Technologies) (125 μmol) followed by an incubation at room temperature (RT) for 20 min to allow formation of ribonucleoprotein (RNP) complexes. 2×10^5 cells were sedimented at 200 g for 10 min at RT, washed with PBS and resuspended in the SG Cell Line Nucleofector™ Solution (Lonza). Cells, Alt-R™ Cas9 Electroporation Enhancer (Lonza) (120 μmol) and the HDR donor oligonucleotide containing the MEN1-M327I mutation as well as a silent mutation at the protospacer adjacent motif (PAM) site (120 μmol) (sequence:5′-[…]-3′) were added to the RNP complex. For wildtype (WT) control, phosphate buffered saline (PBS) (Gibco™, Fisher Scientific) was added to the resuspended cells. Nucleofection was performed using a 16-well 20 μl Nucleocuvette™ stripe (Lonza) in a 4D-Nucleofector™ X Unit (Lonza) (program FF-100). Cells were incubated overnight in RPMI-1640+10% FCS+1% P/S containing 1 μM Alt-R™ HDR enhancer V2 (Lonza) (or DMSO for WT control). The following day, the medium was replaced by RPMI-1640+10% FBS+1% P/S. Single clones were selected in methylcellulose (MethoCult™ M3234, Stemcell™ Technologies) supplemented with 10% RPMI-1640, 10% FBS, 1% P/S and 25 nM SNDX-5613 (or DMSO for WT control), starting 3 days after nucleofection, and expanded in RPMI-1640+10% FCS+1% P/S supplemented with 25 nM SNDX-5613 (or DMSO for WT control). For the in vitro clonal selection assay of bulk nucleofected cells over time, 5×10^3 cells (3 replicates per condition) were seeded in RPMI-1640+10% FBS+1% P/S supplemented with 50 nM SNDX-5613 (or DMSO for WT control) 3 days after nucleofection. Cells were replated in fresh medium+drug every 3 days and viable cells were counted using the LSRFortessa™ (BD Biosciences) flow cytometer. Cumulative cell growth was calculated over 28 days. At each timepoint, cell pellets were frozen and genomic DNA was extracted subsequently using the DNeasy Blood and Tissue Kit™ (QIAGEN). Digital droplet-based PCR was performed from the genomic DNA to assess editing efficiency in the bulk cells over time. To analyze HDR efficiency in single cell clones, genomic DNA was PCR amplified using the Q5 High-Fidelity 2× Master Mix™ (New England BioLabs) and primers (forward: 5′-[…]-3′; reverse: 5′-[…]-3′), and the resulting 641 bp fragment containing the Cas9 cut site was gel-purified using the QIAquick Gel Extraction Kit™ (QIAGEN). Sanger sequencing was used to analyze HDR efficiency (primer 5′-[…]-3′).
(§2) To determine Menin-inhibitor responses of MOLM13, MV4;11 or OCI-AML3 cell lines expressing MEN1 mutants, 3×10^3 cells were plated per well in a non-tissue culture treated 96-well plate. The Menin-inhibitors were titrated on these cells in the following dose-range: DMSO, 3.9 nM, 7.813 nM, 15.625 nM, […], 62.5 nM, 125 nM, 250 nM, 500 nM, 1000 nM. Cells were treated in triplicates on each plate and the experiment was repeated 4 times. After 6 days, cells were split 1:7 and counts of viable cells in each well were determined after 10 d of treatment by flow cytometry (LSRFortessa™ with High-throughput sampler (HTS), BD Biosciences). Relative cell counts were calculated as % of DMSO control. The average of each triplicate was calculated and the mean of all replicates was plotted. Error bars represent the standard error of means (SEM).

[2] = test system: M327I- and T349M-mutant OCI-AML3 cells; assay: as above
Description: as §1, §2

[3] = test system: MOLM13 (MLL::AF9), MV4;11 (MLL::AF4) and OCI-AML3 (NPM1c) cells expressing MEN1-M327I, -G331R and -T349M; assay: dose-response assay after lentiviral expression of MEN1 mutants; conditions: viable cells after 10 days of drug treatment
Description: Cell lines were obtained from the “American Type Culture Collection” (ATCC) or the “Deutsche Sammlung von Mikroorganismen und Zellkulturen” (DSMZ) and cultured in RPMI-1640™ (for MOLM13, MV4;11 and OCI-AML3) or DMEM™ (for HEK-293T)+10% fetal bovine serum (FBS)+1% penicillin/streptomycin (P/S) (Life Technologies/Thermo Fisher Scientific) at 37° C., 5% CO2 atmosphere and 95% humidity. Cell lines were tested and maintained mycoplasma negative throughout all experiments. […]
To determine Menin-inhibitor responses of MOLM13, MV4;11 or OCI-AML3 cell lines expressing MEN1 mutants, 3×10^3 cells were plated per well in a non-tissue culture treated 96-well plate. […] After 6 days, cells were split 1:7 and counts of viable cells in each well were determined after 10 d of treatment by flow cytometry (LSRFortessa™ with High-throughput sampler (HTS), BD Biosciences). Relative cell counts were calculated as % of DMSO control. The average of each triplicate was calculated and the mean of all replicates was plotted. […]

Compound: CCN(C(=O)c1cc(F)ccc1Oc1cncnc1N1CC2(CCN(C[C@H]3CC[C@H](NS(=O)(=O)CC)CC3)CC2)C1)C(C)C [SNDX-5613, revumenib]
- sensitivity [1]: reduced sensitivity
- sensitivity [2]: reduced sensitivity
- drug sensitivity / resistance phenotype [3]: robust decrease in SNDX-5613 sensitivity; also recorded: sufficient to establish resistance

Compound: CNc1nc(NC2CCN(Cc3ccc4c(cc(C#N)n4CC45CC(NC=O)(C4)C5)c3C)CC2)c2cc(CC(F)(F)F)sc2n1 [MI-3454]
- sensitivity [1]: reduced sensitivity
- sensitivity [2]: reduced sensitivity
- drug sensitivity / resistance phenotype [3]: resistance phenotype could similarly be observed

From patent US20260185163A1, “MEN1 MUTATIONS AND USES THEREOF” (DANA-FARBER CANCER INSTITUTE, INC., priority 2022, published 2026)
